How the values were obtained:
male mice of OF1 strain [1] = assay: Measurement of locomotor activity: determination of the doses of amisulpride; assay type: in vivo
Description: The animals used in this study are male mice of OF1 strain weighing about 20 g at the start of the experiments (Charles River, France). They live in an environment whose daily lighting cycle (07:30h; 17:30h) is constant throughout the year, and the temperature is maintained at about 22° C. The mice have free access to water and food, and the experiments are performed in accordance with the international rules on ethics in animal experimentation.
The mice are placed individually in a sound-insulated plastic cage ([…]) and are exposed to a light intensity of 5 lux. The animals' movements are captured by photoelectric cells for 60 minutes and recorded by computer. The experiment starts immediately after injection of the product. In this study, the term “locomotor activity” takes into account only the horizontal movements of the animals.
A one-factor (treatment) analysis of variance (ANOVA) is used for all the behavioral tests performed, followed by a Student-Newman-Keuls test if p<0.05 in the ANOVA. In all the cases, the significance is accepted once p<0.05.
A molecule endowed with dopaminergic antagonist activity reduces locomotor activity. It is this property that is exploited in order to determine the dose after which amisulpride has dopaminergic antagonist activity in mice (i.e. an effect on the D2 and D3 post-synaptic receptors, and not on the D2 and D3 auto-receptors). […]

male mice of OF1 strain [2] = assay: Behavioral sensitization to morphine (locomotor activity on D15 after morphine injection); assay type: in vivo
Description: The locomotor activity is influenced by a wide diversity of factors.
The experimental protocol used may be described in the following manner:
Dose of amisulpride (AMS): 0.5 mg/kg Dose of buprenorphine (Bup): 0.1 mg/kg
The animals received from D1 to D7 either morphine or physiological saline, from Day D8 to D14 either physiological saline, or buprenorphine, amisulpride, buprenorphine and amisulpride according to the scheme:

Structure (SMILES)	effect on locomotor activity at low dose (male mice of OF1 strain [1]; 0.5 mg/kg)	dose at and above which the decrease in locomotor activity is significant (male mice of OF1 strain [1]; doses tested 0.5, 2, 10, 20 and 50 mg/kg, horizontal movements over 60 minutes)	reduction of the behavioral sensitization to morphine (male mice of OF1 strain [2]; morphine D1 to D7, treatment between D8 and D14 (amisulpride 0.5 mg/kg, buprenorphine 0.1 mg/kg), morphine 10 mg/kg on D15)	behavioral sensitization on D15 relative to animals chronically treated with saline (male mice of OF1 strain [2]; mice chronically treated D1 to D7, locomotor activity on D15 after morphine 10 mg/kg)
CCN1CCCC1CNC(=O)c1cc(S(=O)(=O)CC)c(N)cc1OC (stereo not shown) [amisulpride]	locomotor hyperactivity is observed	≥ 10 mg/kg	does not make it possible to reduce this behavioral sensitization	–
CN1CC[C@]23c4c5ccc(O)c4O[C@H]2[C@@H](O)C=C[C@H]3[C@H]1C5 [morphine]	–	–	–	show behavioral sensitization
